Data: ChEMBL document CHEMBL3769303, “Discovery of membrane active benzimidazole quinolones-based topoisomerase inhibitors as potential DNA-binding antimicrobial agents” (Eur J Med Chem, 2016)
In brackets after ≈: the same amount, converted by molar mass.

Assays:
Type in all cases: functional
Staphylococcus aureus [1] = assay: Antibacterial activity against methicillin-resistant Staphylococcus aureus N315 by micro broth dilution method
Cyberlindnera jadinii = assay: Antifungal activity against Candida utilis ATCC 9950 after 24 hrs by micro broth dilution method; settings: Williopsis jadinii, ATCC 9950, 24 h
Micrococcus luteus = assay: Antibacterial activity against Micrococcus luteus ATCC 4698 by micro broth dilution method; settings: NCTC 2665
Escherichia coli [2] = assay: Antibacterial activity against Escherichia coli JM109 by micro broth dilution method
[3] = Antifungal activity against Candida mycoderma ATCC 9888 after 24 hrs by micro broth dilution method; settings: Candida vini
Bacillus spizizenii = assay: Antibacterial activity against Bacillus subtilis ATCC 6633 by micro broth dilution method
Shigella dysenteriae = assay: Antibacterial activity against Shigella dysenteriae by micro broth dilution method
Staphylococcus aureus [4] = assay: Antibacterial activity against Staphylococcus aureus ATCC 25923 by micro broth dilution method
Saccharomyces cerevisiae = assay: Antifungal activity against Saccharomyces cerevisiae ATCC 9763 after 24 hrs by micro broth dilution method; settings: ATCC 9763, 24 h
Aspergillus flavus = assay: Antifungal activity against Aspergillus flavus ATCC 204304 after 24 hrs by micro broth dilution method; settings: ATCC 204304, 24 h
Pseudomonas aeruginosa = assay: Antibacterial activity against Pseudomonas aeruginosa ATCC 27853 by micro broth dilution method
Escherichia coli [5] = assay: Antibacterial activity against Escherichia coli DH52 by micro broth dilution method
Salmonella enterica = assay: Antibacterial activity against Salmonella enterica ATCC 14028 by micro broth dilution method
[6] = Antibacterial activity against Bacillus proteus ATCC 13315 by micro broth dilution method
Candida albicans = assay: Antifungal activity against Candida albicans ATCC 10231 after 24 hrs by micro broth dilution method; settings: ATCC 10231, 24 h

SMILES	MIC (Staphylococcus aureus [1])	MIC80 (Cyberlindnera jadinii)	MIC (Micrococcus luteus)	MIC (Escherichia coli [2])	MIC80 [3]	MIC (Bacillus spizizenii)	MIC (Shigella dysenteriae)	MIC (Staphylococcus aureus [4])	MIC80 (Saccharomyces cerevisiae)	MIC80 (Aspergillus flavus)	MIC (Pseudomonas aeruginosa)	MIC (Escherichia coli [5])	MIC (Salmonella enterica)	MIC [6]	MIC80 (Candida albicans)
CCn1cc(C(=O)O)c(=O)c2cc(F)c(N3CCN(CCc4nc5ccccc5[nH]4)CC3)cc21	16 µg/mL (≈ 34.5 µM)	32 µg/mL (≈ 69 µM)	64 µg/mL (≈ 138 µM)	32 µg/mL (≈ 69 µM)	64 µg/mL (≈ 138 µM)	2 µg/mL (≈ 4.31 µM)	128 µg/mL (≈ 276 µM)	64 µg/mL (≈ 138 µM)	64 µg/mL (≈ 138 µM)	32 µg/mL (≈ 69 µM)	32 µg/mL (≈ 69 µM)	32 µg/mL (≈ 69 µM)	32 µg/mL (≈ 69 µM)	16 µg/mL (≈ 34.5 µM)	64 µg/mL (≈ 138 µM)
CCCCCCCCCCCCn1c(CN2CCN(c3cc4c(cc3F)c(=O)c(C(=O)O)cn4C3CC3)CC2)nc2ccccc21	64 µg/mL (≈ 102 µM)	32 µg/mL (≈ 50.8 µM)	4 µg/mL (≈ 6.35 µM)	16 µg/mL (≈ 25.4 µM)	4 µg/mL (≈ 6.35 µM)	4 µg/mL (≈ 6.35 µM)	2 µg/mL (≈ 3.18 µM)	32 µg/mL (≈ 50.8 µM)	8 µg/mL (≈ 12.7 µM)	4 µg/mL (≈ 6.35 µM)	4 µg/mL (≈ 6.35 µM)	8 µg/mL (≈ 12.7 µM)	16 µg/mL (≈ 25.4 µM)	4 µg/mL (≈ 6.35 µM)	64 µg/mL (≈ 102 µM)
CCn1cc(C(=O)O)c(=O)c2cc(F)c(N3CCN(Cc4nc5ccccc5n4Cc4ccccc4Cl)CC3)cc21	0.125 µg/mL (≈ 0.218 µM)	2 µg/mL (≈ 3.48 µM)	0.5 µg/mL (≈ 0.871 µM)	16 µg/mL (≈ 27.9 µM)	0.5 µg/mL (≈ 0.871 µM)	16 µg/mL (≈ 27.9 µM)	16 µg/mL (≈ 27.9 µM)	8 µg/mL (≈ 13.9 µM)	1 µg/mL (≈ 1.74 µM)	0.5 µg/mL (≈ 0.871 µM)	1 µg/mL (≈ 1.74 µM)	2 µg/mL (≈ 3.48 µM)	0.5 µg/mL (≈ 0.871 µM)	4 µg/mL (≈ 6.97 µM)	4 µg/mL (≈ 6.97 µM)
CCCCCCCCCCn1c(CN2CCN(c3cc4c(cc3F)c(=O)c(C(=O)O)cn4C3CC3)CC2)nc2ccccc21	64 µg/mL (≈ 106 µM)	64 µg/mL (≈ 106 µM)	128 µg/mL (≈ 213 µM)	128 µg/mL (≈ 213 µM)	64 µg/mL (≈ 106 µM)	64 µg/mL (≈ 106 µM)	64 µg/mL (≈ 106 µM)	64 µg/mL (≈ 106 µM)	16 µg/mL (≈ 26.6 µM)	16 µg/mL (≈ 26.6 µM)	32 µg/mL (≈ 53.2 µM)	128 µg/mL (≈ 213 µM)	32 µg/mL (≈ 53.2 µM)	32 µg/mL (≈ 53.2 µM)	64 µg/mL (≈ 106 µM)
O=C(O)c1cn(C2CC2)c2cc(N3CCN(Cc4nc5ccccc5n4Cc4ccccc4F)CC3)c(F)cc2c1=O	0.25 µg/mL (≈ 0.439 µM)	8 µg/mL (≈ 14 µM)	0.25 µg/mL (≈ 0.439 µM)	2 µg/mL (≈ 3.51 µM)	16 µg/mL (≈ 28.1 µM)	8 µg/mL (≈ 14 µM)	4 µg/mL (≈ 7.02 µM)	16 µg/mL (≈ 28.1 µM)	32 µg/mL (≈ 56.2 µM)	16 µg/mL (≈ 28.1 µM)	2 µg/mL (≈ 3.51 µM)	1 µg/mL (≈ 1.76 µM)	0.25 µg/mL (≈ 0.439 µM)	1 µg/mL (≈ 1.76 µM)	32 µg/mL (≈ 56.2 µM)
CCCCCCCCn1c(CN2CCN(c3cc4c(cc3F)c(=O)c(C(=O)O)cn4CC)CC2)nc2ccccc21	2 µg/mL (≈ 3.56 µM)	2 µg/mL (≈ 3.56 µM)	4 µg/mL (≈ 7.12 µM)	32 µg/mL (≈ 57 µM)	2 µg/mL (≈ 3.56 µM)	32 µg/mL (≈ 57 µM)	16 µg/mL (≈ 28.5 µM)	32 µg/mL (≈ 57 µM)	4 µg/mL (≈ 7.12 µM)	0.5 µg/mL (≈ 0.89 µM)	2 µg/mL (≈ 3.56 µM)	8 µg/mL (≈ 14.2 µM)	4 µg/mL (≈ 7.12 µM)	4 µg/mL (≈ 7.12 µM)	8 µg/mL (≈ 14.2 µM)
O=C(O)c1cn(C2CC2)c2cc(N3CCN(Cc4nc5ccccc5n4Cc4cccc(Cl)c4)CC3)c(F)cc2c1=O	0.5 µg/mL (≈ 0.853 µM)	0.25 µg/mL (≈ 0.427 µM)	0.125 µg/mL (≈ 0.213 µM)	4 µg/mL (≈ 6.83 µM)	0.5 µg/mL (≈ 0.853 µM)	4 µg/mL (≈ 6.83 µM)	4 µg/mL (≈ 6.83 µM)	8 µg/mL (≈ 13.7 µM)	0.5 µg/mL (≈ 0.853 µM)	0.5 µg/mL (≈ 0.853 µM)	0.125 µg/mL (≈ 0.213 µM)	0.5 µg/mL (≈ 0.853 µM)	0.25 µg/mL (≈ 0.427 µM)	0.5 µg/mL (≈ 0.853 µM)	0.125 µg/mL (≈ 0.213 µM)
O=C(O)c1cn(C2CC2)c2cc(N3CCN(Cc4nc5ccc(Cl)cc5[nH]4)CC3)c(F)cc2c1=O	0.5 µg/mL (≈ 1.01 µM)	0.5 µg/mL (≈ 1.01 µM)	0.25 µg/mL (≈ 0.504 µM)	0.5 µg/mL (≈ 1.01 µM)	0.5 µg/mL (≈ 1.01 µM)	0.5 µg/mL (≈ 1.01 µM)	0.5 µg/mL (≈ 1.01 µM)	0.5 µg/mL (≈ 1.01 µM)	0.25 µg/mL (≈ 0.504 µM)	0.5 µg/mL (≈ 1.01 µM)	0.5 µg/mL (≈ 1.01 µM)	0.5 µg/mL (≈ 1.01 µM)	0.5 µg/mL (≈ 1.01 µM)	0.5 µg/mL (≈ 1.01 µM)	0.5 µg/mL (≈ 1.01 µM)
CCCn1c(CN2CCN(c3cc4c(cc3F)c(=O)c(C(=O)O)cn4CC)CC2)nc2ccccc21	16 µg/mL (≈ 32.5 µM)	32 µg/mL (≈ 65.1 µM)	8 µg/mL (≈ 16.3 µM)	128 µg/mL (≈ 260 µM)	2 µg/mL (≈ 4.07 µM)	2 µg/mL (≈ 4.07 µM)	32 µg/mL (≈ 65.1 µM)	256 µg/mL (≈ 521 µM)	32 µg/mL (≈ 65.1 µM)	32 µg/mL (≈ 65.1 µM)	32 µg/mL (≈ 65.1 µM)	32 µg/mL (≈ 65.1 µM)	16 µg/mL (≈ 32.5 µM)	128 µg/mL (≈ 260 µM)	32 µg/mL (≈ 65.1 µM)
CCn1cc(C(=O)O)c(=O)c2cc(F)c(N3CCN(Cc4nc5ccc([N+](=O)[O-])cc5[nH]4)CC3)cc21	8 µg/mL (≈ 16.2 µM)	8 µg/mL (≈ 16.2 µM)	1 µg/mL (≈ 2.02 µM)	32 µg/mL (≈ 64.7 µM)	8 µg/mL (≈ 16.2 µM)	8 µg/mL (≈ 16.2 µM)	4 µg/mL (≈ 8.09 µM)	16 µg/mL (≈ 32.4 µM)	16 µg/mL (≈ 32.4 µM)	2 µg/mL (≈ 4.04 µM)	2 µg/mL (≈ 4.04 µM)	8 µg/mL (≈ 16.2 µM)	4 µg/mL (≈ 8.09 µM)	2 µg/mL (≈ 4.04 µM)	4 µg/mL (≈ 8.09 µM)
